Key:
Assay type in all cases: biochemical
[1] = target: T1, Complex I from Y. lipolytica (Yarrowia lipolytica, UniProt Q9B6E8+Q9UUT7+Q9UUU1+Q9UUU2); assay: NADH:O2 oxidoreduction (FET) in CI proteoliposomes with AOX, spectrophotometric; details: 200 μM NADH
T1 construct: gene nubm; complex purified from Y. lipolytica, whole multi-subunit enzyme, reconstituted in proteoliposomes with E. coli F1FO ATP synthase

[2] = target: T2, complex I from mouse heart (Mus musculus) (Mus musculus, UniProt P03888+Q91WD5+Q91YT0+Q9DC70); assay: as above; details: 200 μM NADH, membrane Q10, pH 7.5, 32 °C
T2 construct: gene Ndufv1; native complex purified from mouse heart, whole multi-subunit enzyme, reconstituted in proteoliposomes with E. coli F1FO ATP synthase

[3] = target: T2, complex I from mouse heart (Mus musculus); assay: NAD+ reduction by RET in CI-F1FO proteoliposomes with GlpD, spectrophotometric; details: Δp-linked RET; 1 mM NAD+, ATP, rac-G3P, β-CD, pH 7.5, 32 °C
P. pastoris complex I [4] = target: T3, P. pastoris complex I (Komagataella pastoris, UniProt E1UWA8+E1UWB5+E1UWC2); assay: as above; details: membrane concentration, Δp-linked, ATP, rac-G3P, β-CD, preheated 37 °C 15 min, assay pH 7.5, 32 °C
T3 construct: gene nucm; native complex purified from P. pastoris, whole multi-subunit enzyme, reconstituted in proteoliposomes with E. coli F1FO ATP synthase; with NADH dehydrogenase [ubiquinone] flavoprotein 1, mitochondrial (51 kDa subunit)

P. pastoris complex I [5] = target: T3, P. pastoris complex I; assay: NADH:O2 oxidoreduction (FET) in CI proteoliposomes with AOX, spectrophotometric; details: membrane Q10 concentration; 200 μM NADH, pH 7.5, 32 °C
[6] = target: T4, complex I from B. taurus (bovine complex I) (Bos taurus, UniProt P03887+P17694+P25708+P42026); assay: as above
T4 construct: gene NDUFS2; AOX or GlpD added; with NADH dehydrogenase [ubiquinone] flavoprotein 2, mitochondrial; NADH-ubiquinone oxidoreductase 75 kDa subunit, mitochondrial; NADH dehydrogenase [ubiquinone] iron-sulfur protein 3, mitochondrial; NADH dehydrogenase [ubiquinone] iron-sulfur protein 8, mitochondrial; NADH-ubiquinone oxidoreductase chain 2; NADH-ubiquinone oxidoreductase chain 3; NADH-ubiquinone oxidoreductase chain 4; NADH-ubiquinone oxidoreductase chain 4L; NADH-ubiquinone oxidoreductase chain 5; NADH-ubiquinone oxidoreductase chain 6

NC(=O)C1=CN([C@@H]2O[C@H](COP(=O)(O)OP(=O)(O)OC[C@H]3O[C@@H](n4cnc5c(N)ncnc54)[C@H](O)[C@@H]3O)[C@@H](O)[C@H]2O)C=CC1 [NADH]
NADH:O2 oxidoreduction (FET) in CI proteoliposomes with AOX, spectrophotometric ([1]; membrane Q10, pH 7.5, 32 °C): Complex I from Y. lipolytica consistently showed remarkably high rates of NADH oxidation in proteoliposomes | NADH:O2 oxidoreduction (FET) in CI proteoliposomes with AOX, spectrophotometric [2]: Representative FET activities for proteoliposomes containing complex I from B. taurus (Bt), M. musculus (Mm)

NC(=O)c1ccc[n+]([C@@H]2O[C@H](COP(=O)(O)OP(=O)(O)OC[C@H]3O[C@@H](n4cnc5c(N)ncnc54)[C@H](O)[C@@H]3O)[C@@H](O)[C@H]2O)c1 [NAD^+]
NAD+ reduction by RET in CI-F1FO proteoliposomes with GlpD, spectrophotometric [3]: by Δp-linked NAD^+ reduction (Figure 6B), that mouse complex I is capable of RET

COc1c(O)c(C)c(C/C=C(\C)CC/C=C(\C)CC/C=C(\C)CC/C=C(\C)CC/C=C(\C)CC/C=C(\C)CC/C=C(\C)CC/C=C(\C)CC/C=C(\C)CCC=C(C)C)c(O)c1OC [Q10H2]
KM (Q10H2) (P. pastoris complex I [4]): the KM for Q10H2 was again significantly higher than for Q10

COC1=C(OC)C(=O)C(C/C=C(\C)CC/C=C(\C)CC/C=C(\C)CC/C=C(\C)CC/C=C(\C)CC/C=C(\C)CC/C=C(\C)CC/C=C(\C)CC/C=C(\C)CCC=C(C)C)=C(C)C1=O [Q10]
NADH:O2 oxidoreduction (FET) in CI proteoliposomes with AOX, spectrophotometric ([1]; membrane Q10 as acceptor, pH 7.5, 32 °C): Complex I from Y. lipolytica consistently showed remarkably high rates of NADH oxidation in proteoliposomes | KM (Q10) (P. pastoris complex I [5]): The KM values for both Q10 and Q10H2 were both lower for P. pastoris

C/C=C(\C)[C@H](O)[C@H](C)/C=C(C)/C=C/C/C(C)=C/Cc1nc(OC)c(OC)c(O)c1C [piericidin A]
IC50 [6]: 7.8 ± 0.1 nM

Reference: PMC9026280, “Reverse Electron Transfer by Respiratory Complex I Catalyzed in a Modular Proteoliposome System” (Journal of the American Chemical Society, 2022)
